Data published in patent US5733924A, “DC 107 derivatives and treatment methods” (Kyowa Hakko Kogyo Co., Ltd., priority 1995, dated 1998).
Values after ≈ are worked out from the molar mass of the structure shown. Read-outs that look alike come from different tables or passages of the source.

Key:
[1] = test system: Klebsiella pneumoniae ATCC 10031; test: Antibacterial activity, agar dilution method (MIC); assay type: cell-based
Excerpt: (§1) The antibacterial activity as determined by the agar dilution method using a medium prepared by dissolving 3 g of Bacto-Tryptone (a product of Difco Laboratories), 3 g of a meat extract, 1 g of an yeast extract, 1 g of glucose and 16 g of agar in one liter of water (pH 7).
KP: Klebsiella pneumoniae ATCC 10031

[2] = test system: Staphylococcus aureus ATCC 6538P; test: Antibacterial activity, agar dilution method (MIC); assay type: cell-based; conditions: for MIC: ATCC6538P
Excerpt: as §1
SA: Staphylococcus aureus ATCC 6538P

[3] = test system: Bacillus subtilis No. 10707; test: Antibacterial activity, agar dilution method (MIC); assay type: cell-based
Excerpt: as §1
BS: Bacillus subtilis No. 10707

[4] = test system: Enterococcus faecium ATCC 10541; test: Antibacterial activity, agar dilution method (MIC); assay type: cell-based
Excerpt: as §1
EF: Enterococcus faecium ATCC 10541

Escherichia coli ATCC 26 = test: Antibacterial activity, agar dilution method (MIC); assay type: cell-based
Excerpt: as §1
EC: Escherichia coli ATCC 26

P388 Leukemia = test: Antitumor activity against P388 leukemia in mice (increased life span); assay type: in vivo, CDF1 mice; conditions: Mus musculus, P388, ip, 720 h; for ILS at 16 mg/kg: single i.p. 24 hours after transplantation, CDF1 mice, 30 days observation
Description: Ascites were collected from the abdominal cavity of P388 ascites tumor-bearing cancer mice (DBA/2) on the 7th day after transplantation. A number of P388 cells in the ascites was counted, and a tumor cell floating liquid of 5×10^6 cells/ml was prepared using a physiological saline solution. Then, 0.2 ml of the solution containing 1×10^6 cells was transplanted into the abdominal cavity of CDF1 mice having a body weight of from 20 to 25 g.
The effect of the test compound was determined in terms of the ratio of average survival days of the group administered with the test compound to average survival days of the control group (non-medicated group) (i.e., an increased life span, ILS%).

[5] = ATCC10031, KP: Klebsiella pneumoniae ATCC 10031, agar dilution, pH 7, read-out: MIC (minimum growth inhibitory concentration)
[6] = SA: Staphylococcus aureus ATCC 6538P, agar dilution, pH 7, read-out: MIC (minimum growth inhibitory concentration)
[7] = BS: Bacillus subtilis No. 10707, pH 7, read-out: MIC (minimum growth inhibitory concentration)
[8] = ATCC10541, EF: Enterococcus faecium ATCC 10541, pH 7, read-out: MIC (minimum growth inhibitory concentration)
[9] = ATCC26, EC: Escherichia coli ATCC 26, pH 7, read-out: MIC (minimum growth inhibitory concentration)
[10] = Staphylococcus aureus, pH 7, read-out: MIC (minimum growth inhibitory concentration)
[11] = Bacillus subtilis, NO.10707, pH 7, read-out: MIC (minimum growth inhibitory concentration), BS: Bacillus subtilis No. 10707
[12] = Enterococcus faecium, ATCC10541, pH 7, read-out: MIC (minimum growth inhibitory concentration), EF: Enterococcus faecium ATCC 10541
[13] = Klebsiella pneumoniae, ATCC10031, pH 7, read-out: MIC (minimum growth inhibitory concentration)

Row | MIC [1, 5] [µg/mL] | MIC [2, 6] [µg/mL] | MIC [3, 7] [µg/mL] | MIC [4, 8] [µg/mL] | MIC (Escherichia coli ATCC 26; [9]) [µg/mL] | Compound | further results
1 | 2.9 (≈ 4.35 µM) | 0.72 (≈ 1.08 µM) | 0.72 (≈ 1.08 µM) | 0.72 (≈ 1.08 µM) | 46 (≈ 69 µM) | COCOC1/C=C(\C)CCC2(C(C)(O)C(=O)SCc3oc(=O)oc3C)CC(=O)N(C(C)c3nc(cs3)/C=C\C=C\C1=O)[S+]2[O-] (stereo not drawn) [Compound 58] | 
2 | 2.6 (≈ 3.45 µM) | 0.65 (≈ 0.863 µM) | 0.041 (≈ 0.0545 µM) | 0.65 (≈ 0.863 µM) |  | COC1(OC2C=C(C)CCC3(C(C)(O)C(=O)SCc4oc(=O)oc4C)CC(=O)N(C(C)c4nc(cs4)C=CC=CC2=O)[S+]3[O-])CCSCC1 (stereo not drawn) [Compound 127] | ILS at 16 mg/kg (P388 Leukemia): 52%
3 |  |  |  |  |  | C/C1=C\C(OC2CCCCO2)C(=O)/C=C/C=C\c2csc(n2)C(C)N2C(=O)CC(C(C)(O)C(=O)SCc3oc(=O)oc3C)(CC1)[S+]2[O-] (single isomer, unassigned) [Compound 64] | MIC (minimum growth inhibitory concentration) ([1]; KP: Klebsiella pneumoniae ATCC 10031, agar dilution, pH 7): 5.2 µg/mL (≈ 7.36 µM); MIC (minimum growth inhibitory concentration) ([2]; SA: Staphylococcus aureus ATCC 6538P, agar dilution, pH 7): 0.65 µg/mL (≈ 0.92 µM); MIC (minimum growth inhibitory concentration) ([3]; BS: Bacillus subtilis No. 10707, pH 7): 0.16 µg/mL (≈ 0.226 µM); MIC (minimum growth inhibitory concentration) ([4]; EF: Enterococcus faecium ATCC 10541, pH 7): 1.3 µg/mL (≈ 1.84 µM); MIC (minimum growth inhibitory concentration) (Escherichia coli ATCC 26; EC: Escherichia coli ATCC 26, pH 7): 5.2 µg/mL (≈ 7.36 µM)
4 |  |  |  |  |  | C/C1=C\C(O)C(=O)/C=C/C=C\c2csc(n2)C(C)N2C(=O)CC(C(C)(O)C(=O)SCOC(=O)C3CCCCC3)(CC1)[S+]2[O-] (stereo not drawn) [Compound 80] | MIC [2, 10]: 2.6 µg/mL (≈ 3.99 µM); MIC [3, 11]: 0.041 µg/mL (≈ 0.063 µM); MIC [4, 12]: 5.2 µg/mL (≈ 7.99 µM)
5 | 1.7 (≈ 2.45 µM) | 0.85 (≈ 1.22 µM) | 0.11 (≈ 0.158 µM) | 54 (≈ 77.7 µM) | 6.8 (≈ 9.79 µM) | CCOC(C)OC1/C=C(\C)CCC2(C(C)(O)C(=O)SCc3oc(=O)oc3C)CC(=O)N(C(C)c3nc(cs3)/C=C\C=C\C1=O)[S+]2[O-] (stereo not drawn) [Compound 87] | 
6 | 10 (≈ 18.1 µM) | 1.3 (≈ 2.35 µM) | 10 (≈ 18.1 µM) | 2.6 (≈ 4.7 µM) | 42 (≈ 76 µM) | CC(=O)OC1(C)C(=O)S[S+]([O-])C12CC/C(C)=C/C(O)C(=O)/C=C/C=C\c1csc(n1)C(C)NC(=O)C2 (stereo not drawn) [Compound 25] | 
7 | 4.2 (≈ 7.21 µM) | 0.26 (≈ 0.446 µM) | 0.13 (≈ 0.223 µM) | 0.26 (≈ 0.446 µM) | 4.2 (≈ 7.21 µM) | CCOC(=O)OC1/C=C(\C)CCC2(CC(=O)NC(C)c3nc(cs3)/C=C\C=C\C1=O)[S+]([O-])SC(=O)C2(C)O (stereo not drawn) [Compound 10] | 
8 | 0.39 (≈ 0.561 µM) | 0.78 (≈ 1.12 µM) | 0.26 (≈ 0.374 µM) | 0.78 (≈ 1.12 µM) |  | COC(C)(C)OC1/C=C(\C)CCC2(C(C)(O)C(=O)SCc3oc(=O)oc3C)CC(=O)N(C(C)c3nc(cs3)/C=C\C=C\C1=O)[S+]2[O-] (stereo not drawn) [Compound 121] | 
9 |  |  |  |  |  | C/C1=C\C(O)C(=O)/C=C/C=C\c2csc(n2)C(C)N2C(=O)CC(C(C)(O)C(=O)SCOC(=O)C3CCC3)(CC1)[S+]2[O-] (stereo not drawn) [Compound 78] | MIC [1, 13]: 2.3 µg/mL (≈ 3.69 µM); MIC [2, 10]: 4.7 µg/mL (≈ 7.55 µM); MIC [3, 11]: 0.073 µg/mL (≈ 0.117 µM); MIC [4, 12]: 9.4 µg/mL (≈ 15.1 µM)
10 |  |  |  |  |  | CC1=CC(OC(=O)CNC(=O)CN(C)C(=O)OCc2ccccc2)C(=O)C=CC=Cc2csc(n2)C(C)N2C(=O)CC(C(C)(O)C(=O)SCc3oc(=O)oc3C)(CC1)[S+]2[O-] (stereo not drawn) [Compound 172] | MIC [1, 13]: 1 µg/mL (≈ 1.13 µM); MIC [2, 10]: 2.1 µg/mL (≈ 2.37 µM); MIC [3, 11]: 1 µg/mL (≈ 1.13 µM); MIC [4, 12]: 1 µg/mL (≈ 1.13 µM); ILS at 4 mg/kg (P388 Leukemia; read-out: ILS (increased life span)): 65%
11 |  |  |  |  |  | C/C1=C\C(OCOCc2ccccc2)C(=O)/C=C/C=C\c2csc(n2)C(C)N2C(=O)CC(C(C)(O)C(=O)SCc3oc(=O)oc3C)(CC1)[S+]2[O-] (stereo not drawn) [Compound 61] | MIC [2, 10]: 0.65 µg/mL (≈ 0.875 µM); MIC [3, 11]: 0.081 µg/mL (≈ 0.109 µM); MIC [4, 12]: 0.65 µg/mL (≈ 0.875 µM); MIC (Escherichia coli ATCC 26; Escherichia coli, ATCC26, pH 7, read-out: MIC (minimum growth inhibitory concentration), EC: Escherichia coli ATCC 26): 2.6 µg/mL (≈ 3.5 µM)

Row | Compound | MIC [1, 5] [µg/mL] | MIC [2, 6] [µg/mL] | MIC [3, 7] [µg/mL] | MIC [4, 8] [µg/mL] | MIC (Escherichia coli ATCC 26; [9]) [µg/mL] | further results
12 | CC(=O)OC1/C=C(\C)CCC2(CC(=O)NC(C)c3nc(cs3)/C=C\C=C\C1=O)[S+]([O-])SC(=O)C2(C)O (stereo not drawn) [Compound 1] | 17 (≈ 30.8 µM) | 0.52 (≈ 0.941 µM) | 0.26 (≈ 0.47 µM) | 0.52 (≈ 0.941 µM) |  | 
13 | COC1(OC2/C=C(\C)CCC3(CC(=O)NC(C)c4nc(cs4)/C=C\C=C\C2=O)[S+]([O-])SC(=O)C3(C)O)CCOCC1 (stereo not drawn) [Compound 90] | 0.16 (≈ 0.256 µM) | 0.041 (≈ 0.0656 µM) | 0.02 (≈ 0.032 µM) | 0.041 (≈ 0.0656 µM) | 0.65 (≈ 1.04 µM) | 
14 | C/C1=C\C(OC(=O)OCC2c3ccccc3-c3ccccc32)C(=O)/C=C/C=C\c2csc(n2)C(C)NC(=O)CC2(CC1)[S+]([O-])SC(=O)C2(C)O (stereo not drawn) [Compound 15] |  | 0.16 (≈ 0.218 µM) | 0.041 (≈ 0.0559 µM) | 0.081 (≈ 0.111 µM) |  | ILS at 16 mg/kg (P388 Leukemia): 63%
